Test results reported in PubChem BioAssay AID248 (DTP/NCI, 2004).
Where “and” joins values, the source holds several entries; their conditions need not be identical. Identical values can stand only once. Inconclusive results and toxic doses are left out. Rule as the data show it: active = T/C of 150% or more; inactive = T/C below 125%.

Test system: L1210 leukemia ip in BDF1 mice, survival T/C
Assay: NCI In Vivo Anticancer Drug Screen. Data for tumor model L1210 Leukemia (intraperitoneal) in B6D2F1 (BDF1) mice
Details: endpoint: mean survival time, higher = longer survival
Summary of the method: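 Ratio derived from survival: compound-dosed mice over vehicle-dosed mice, all bearing a transplantable tumor.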

[1] = dose: 50.0 mg/kg/injection, schedule: Q01DX001 (ip), vehicle: carboxymethylcellulose (CMC)
[2] = dose: 100.0 mg/kg/injection, schedule: Q01DX001 (ip), vehicle: saline
[3] = dose: 200.0 mg/kg/injection, schedule: Q01DX001 (ip), vehicle: saline
[4] = dose: 400.0 mg/kg/injection, schedule: Q01DX001 (ip), vehicle: saline
[5] = dose: 100.0 mg/kg/injection, schedule: Q01DX001 (ip), vehicle: carboxymethylcellulose (CMC)
[6] = dose: 200.0 mg/kg/injection, schedule: Q01DX001 (ip), vehicle: carboxymethylcellulose (CMC)
[7] = dose: 400.0 mg/kg/injection, schedule: Q01DX001 (ip), vehicle: carboxymethylcellulose (CMC)
[8] = dose: 100.0 mg/kg/injection, schedule: Q04DX003 (ip), vehicle: saline with Tween-80
[9] = dose: 200.0 mg/kg/injection, schedule: Q04DX003 (ip), vehicle: saline with Tween-80
[10] = dose: 400.0 mg/kg/injection, schedule: Q04DX003 (ip), vehicle: saline with Tween-80
[11] = dose: 100.0 mg/kg/injection, schedule: Q01DX009 (ip), vehicle: Klucel (hydroxypropylcellulose) (HPC)
[12] = dose: 100.0 mg/kg/injection, schedule: Q04DX003 (ip), vehicle: Klucel (hydroxypropylcellulose) (HPC)
[13] = dose: 200.0 mg/kg/injection, schedule: Q01DX009 (ip), vehicle: Klucel (hydroxypropylcellulose) (HPC)
[14] = dose: 200.0 mg/kg/injection, schedule: Q04DX003 (ip), vehicle: Klucel (hydroxypropylcellulose) (HPC)
[15] = dose: 400.0 mg/kg/injection, schedule: Q01DX009 (ip), vehicle: Klucel (hydroxypropylcellulose) (HPC)
[16] = dose: 400.0 mg/kg/injection, schedule: Q04DX003 (ip), vehicle: Klucel (hydroxypropylcellulose) (HPC)
[17] = dose: 100.0 mg/kg/injection, schedule: Q01DX001 (ip), vehicle: other
[18] = dose: 200.0 mg/kg/injection, schedule: Q01DX001 (ip), vehicle: other
[19] = dose: 400.0 mg/kg/injection, schedule: Q01DX001 (ip), vehicle: other
[20] = dose: 50.0 mg/kg/injection, schedule: Q01DX009 (ip), vehicle: saline
[21] = dose: 100.0 mg/kg/injection, schedule: Q01DX009 (ip), vehicle: saline
[22] = dose: 100.0 mg/kg/injection, schedule: Q01DX001 (ip), vehicle: Klucel (hydroxypropylcellulose) (HPC)
[23] = dose: 100.0 mg/kg/injection, schedule: Q04DX002 (ip), vehicle: Klucel (hydroxypropylcellulose) (HPC)
[24] = dose: 200.0 mg/kg/injection, schedule: Q04DX002 (ip), vehicle: Klucel (hydroxypropylcellulose) (HPC)
[25] = dose: 400.0 mg/kg/injection, schedule: Q04DX002 (ip), vehicle: Klucel (hydroxypropylcellulose) (HPC)

Measured: T/C

O=C(CI)OCC#CCOC(=O)CI
inactive: dose: 12.5 mg/kg/injection, schedule: Q01DX001 (ip), vehicle: carboxymethylcellulose (CMC) 98 % of control | dose: 12.5 mg/kg/injection, schedule: Q01DX009 (ip), vehicle: carboxymethylcellulose (CMC) 90 % of control and 92 % of control | dose: 12.5 mg/kg/injection, schedule: Q04DX002 (ip), vehicle: carboxymethylcellulose (CMC) 104 % of control and 110 % of control | dose: 12.5 mg/kg/injection, schedule: Q04DX003 (ip), vehicle: carboxymethylcellulose (CMC) 95 % of control | dose: 25.0 mg/kg/injection, schedule: Q01DX001 (ip), vehicle: carboxymethylcellulose (CMC) 103 % of control | dose: 25.0 mg/kg/injection, schedule: Q01DX009 (ip), vehicle: carboxymethylcellulose (CMC) 86 % of control | dose: 25.0 mg/kg/injection, schedule: Q04DX002 (ip), vehicle: carboxymethylcellulose (CMC) 98 % of control | dose: 25.0 mg/kg/injection, schedule: Q04DX003 (ip), vehicle: carboxymethylcellulose (CMC) 103 % of control | [1] 92 % of control | dose: 50.0 mg/kg/injection, schedule: Q04DX002 (ip), vehicle: carboxymethylcellulose (CMC) 97 % of control and 103 % of control | dose: 50.0 mg/kg/injection, schedule: Q04DX003 (ip), vehicle: carboxymethylcellulose (CMC) 94 % of control

O=C(CO)NCO
inactive: [2] 103 % of control | [3] 101 % of control | [4] 101 % of control

O=C(/C=C(\OB(F)F)c1ccccc1)c1ccccc1
inactive: [1] 102 % of control | [5] 94 % of control | [6] 100 % of control | [7] 90 % of control

C=C1C(=O)OC2CCC(O)C12 (stereo not drawn)
inactive: dose: 25.0 mg/kg/injection, schedule: Q01DX001 (ip), vehicle: saline 94 % of control | dose: 50.0 mg/kg/injection, schedule: Q01DX001 (ip), vehicle: saline 108 % of control | [2] 105 % of control

COc1ccc2c(c1)C(CO)c1ccc(Cl)cc1N2 (stereo not drawn)
inactive: [8] 93 % of control | [9] 96 % of control | [10] 94 % of control

S=C(Nc1ccccc1)Nc1ccccc1S
inactive: [11] 97 % of control | [12] 98 % of control | [13] 92 % of control | [14] 95 % of control | [15] 92 % of control | [16] 95 % of control

Oc1ccccc1C=Nc1ccccc1O.[Zn+2]
inactive: [17] 94 % of control | [18] 91 % of control | [19] 91 % of control

CP1CCC(O)(C(C)(C)C)CC1 (stereo not drawn)
inactive: dose: 75.0 mg/kg/injection, schedule: Q01DX001 (ip), vehicle: other 101 % of control | dose: 150.0 mg/kg/injection, schedule: Q01DX001 (ip), vehicle: other 91 % of control

NNC(=S)NC1CCCCC1
inactive: dose: 25.0 mg/kg/injection, schedule: Q04DX003 (ip), vehicle: Klucel (hydroxypropylcellulose) (HPC) 100 % of control | dose: 50.0 mg/kg/injection, schedule: Q04DX003 (ip), vehicle: Klucel (hydroxypropylcellulose) (HPC) 95 % of control | [12] 95 % of control and 90 % of control | [8] 96 % of control | [9] 96 % of control | [10] 96 % of control

O=C1CCCC2C1C1(O)CCC2(O)c2cccc(O)c21 (stereo not drawn)
inactive: dose: 6.25 mg/kg/injection, schedule: Q01DX009 (ip), vehicle: saline 109 % of control | dose: 12.5 mg/kg/injection, schedule: Q01DX009 (ip), vehicle: saline 102 % of control | dose: 25.0 mg/kg/injection, schedule: Q01DX009 (ip), vehicle: saline 101 % of control | [20] 98 % of control | [2] 96 % of control | [21] 91 % of control | [3] 103 % of control

O=C(COc1ccc(Br)cc1Br)OCCCl
inactive: [2] 100 % of control | [3] 117 % of control | [4] 103 % of control

Nc1cc([N+](=O)[O-])cc([N+](=O)[O-])c1
inactive: [1] 109 % of control | [5] 118 % of control | [6] 113 % of control

Cn1c(O)c(N)c(=O)n(C)c1=O
inactive: [20] 98 % of control | [21] 92 % of control

CC(C)(C)c1ccc(OC(=O)Nc2ccc(O)c(C(=O)O)c2)cc1
inactive: [22] 115 % of control | [11] 94 % of control and 98 % of control | [23] 96 % of control and 118 % of control | [12] 96 % of control | [13] 94 % of control | [24] 92 % of control and 86 % of control | [14] 86 % of control

Cc1ccc(NC(=S)Nc2ccccc2)c(C)c1
inactive: [17] 89 % of control | [11] 102 % of control | [23] 87 % of control | [18] 94 % of control | [13] 97 % of control | [24] 90 % of control | [19] 97 % of control | [15] 94 % of control | [25] 106 % of control

Cc1c(C(=O)N(C)C)no[n+]1[O-]
inactive: dose: 25.0 mg/kg/injection, schedule: Q04DX002 (ip), vehicle: saline 102 % of control | dose: 50.0 mg/kg/injection, schedule: Q04DX002 (ip), vehicle: saline 106 % of control | dose: 100.0 mg/kg/injection, schedule: Q04DX002 (ip), vehicle: saline 98 % of control

CC1(O)C2CC3CC(C2)CC1C3 (stereo not drawn)
inactive: [23] 113 % of control | [24] 98 % of control and 87 % of control | [25] 94 % of control

COc1cc(OC)c(NC2=CC(c3ccc(Cl)cc3)OC2=O)cc1Cl (stereo not drawn)
inactive: [22] 92 % of control | [12] 92 % of control | dose: 200.0 mg/kg/injection, schedule: Q01DX001 (ip), vehicle: Klucel (hydroxypropylcellulose) (HPC) 94 % of control | [14] 95 % of control | dose: 400.0 mg/kg/injection, schedule: Q01DX001 (ip), vehicle: Klucel (hydroxypropylcellulose) (HPC) 92 % of control | [16] 95 % of control

O=C1C(=O)c2ccccc2C(O)=C1c1ccccc1
inactive: [1] 114 % of control

CC(=O)N1Cc2c(N)nc(N)nc2C1C (stereo not drawn)
inactive: [5] 101 % of control | [6] 95 % of control | [7] 104 % of control

c1ccc(CN(CCCOc2ccccc2)Cc2ccccc2)cc1
inactive: [8] 103 % of control | [9] 103 % of control | [10] 97 % of control

COc1cc(C)c([N+](=O)[O-])cc1OC
inactive: [2] 106 % of control | [3] 97 % of control | [4] 101 % of control

[Ni+2].[O-]c1ccc(Cl)cc1C=NCc1ccccn1.[O-]c1ccc(Cl)cc1C=NCc1ccccn1
inactive: [8] 93 % of control | [9] 93 % of control

OCCCCCCCCCCCC[n+]1ccccc1
inactive: dose: 87.5 mg/kg/injection, schedule: Q01DX001 (ip), vehicle: saline 105 % of control

O=[N+]([O-])c1ccc(CC(O)c2ccccc2Cl)cc1 (stereo not drawn)
inactive: [11] 102 % of control | [12] 101 % of control | [13] 102 % of control | [14] 101 % of control | [15] 97 % of control | [16] 97 % of control
